Measurements taken from US20110165202A1, “SOLID STATE FORMS OF FOSAMPRENAVIR CALCIUM SALT AND PROCESSES FOR PREPARATION THEREOF” (PLIVA HRVATSKA D.O.O., priority 2010, published 2011).

Assay: solubility of rod like amorphous particles compared to Form I
Settings: qualitative statement, no method or figures given

CC(C)CN(C[C@@H](OP(=O)(O)O)[C@H](Cc1ccccc1)NC(=O)O[C@H]1CCOC1)S(=O)(=O)c1ccc(N)cc1 [rod like amorphous particles, calcium (2R, 3S)-1-(4-amino-N-isobutyl-phenylsulfonamido)-4-phenyl-3-(((S)-tetrahydrofuran-3-yloxy)carbonylamino)butan-2-yl phosphate]
solubility: enhanced solubility compared to Form I
